Assay results: patent US4929626A, “α-substituted 4-(quinolin-2-yl-methoxy)phenylacetic acids and esters and lipoxygenase inhibition therewith” (Bayer Aktiengesellschaft, priority 1988, dated 1990)
Where a name gives a salt, the structure may show the parent alone.

Tests used:
lipoxygenase = test: Lipoxygenase inhibition: release of leukotriene B4 (LTB4) by polymorphonuclear rat leukocytes (PMN) after Ca ionophore, reverse phase HPLC; format: cell-based
Procedure: (§1) The pharmacological activity data of the substances according to the invention are determined by the following method: As a measure of the lipoxygenase inhibition, the release of leukotriene B4 (LTB4) by polymorphonuclear rat leukocytes (PMN) was determined after addition of substances and Ca ionophore by means of reverse phase HPLC according to Borgeat, P. et al., Proc. Nat. Acad. Sci. 76, 2148-2152 (1979). The in vivo activity of the compounds was determined using the mouse ear inflammation model according to Young, J. M. et al., J. of Investigative Dermatology 82, 367-371 (1984).

mouse ear inflammation = test: Mouse ear inflammation model (in vivo activity); settings: 100 mg/kg p.o.
Procedure: as §1

## CCCCC(C(=O)OCC(=O)OC)c1ccc(OCc2ccc3ccccc3n2)cc1 (stereo not shown) [Example 27, Methoxycarbonylmethyl 2-[4-(quinolin-2-yl-methoxy)phenyl]caproate hydrochloride]
lipoxygenase
  IC50: 63 nM

## CCCCC(C(=O)O)c1ccc(OCc2ccc3ccccc3n2)cc1 (stereo not shown) [Example 20, 2-[4-(Quinolin-2-yl-methoxy)phenyl]caproic acid]
lipoxygenase
  IC50: 55 nM
Mouse ear inflammation
  Inhibition of inflammation %: 68%

## CCCCC(C(=O)OCC(=O)O)c1ccc(OCc2ccc3ccccc3n2)cc1 (stereo not shown) [Example 29, Carboxymethyl 2-[4-(quinolin-2-yl-methoxy)phenyl]caproate]
lipoxygenase
  IC50: 55 nM
Mouse ear inflammation
  Inhibition of inflammation %: 72%

## CCCCCC(C(=O)OC)c1ccc(OCc2ccc3ccccc3n2)cc1 (stereo not shown) [Example 10, Methyl 2-[4-(quinolin-2-yl-methoxy)phenyl]heptanoate]
Mouse ear inflammation
  Inhibition of inflammation %: 61%

## CC(C)=CCC(C(=O)O)c1ccc(OCc2ccc3ccccc3n2)cc1 (stereo not shown) [Example 22, 2-[4-(Quinolin-2-yl-methoxy)phenyl]-5-methyl-4-hexenoic acid]
Mouse ear inflammation
  Inhibition of inflammation %: 77%

## C/C=C/CC(C(=O)OC)c1ccc(OCc2ccc3ccccc3n2)cc1 (stereo not shown) [Example 12, Methyl E-2-[4-(quinolin-2-yl-methoxy)phenyl]-4-hexenoate]
Mouse ear inflammation
  Inhibition of inflammation %: 59%

## CCCCCC(O)c1cccc(OCc2ccc3ccccc3n2)c1 (stereo not shown) [2-[3-(1-hydroxyhexyl)phenoxymethyl]quinoline, reference compound]
lipoxygenase
  IC50: 200 nM
Mouse ear inflammation
  Inhibition of inflammation %: 24%
